Paper PMC8287927, “Evidence for a chromosome origin unwinding system broadly conserved in bacteria” (Nucleic Acids Research, 2021)

Target: T1, B. subtilis DnaA (Bacillus subtilis, UniProt P05648)
T1 construct: full-length, cloned in pSP015 with His14-SUMO-FLAG3 tag; His14-SUMO cleaved (FLAG3 kept where present); E. coli BL21(DE3)-pLysS
Test: competition with TNP-ATP fluorescence
Details: pH 8, 5 mM magnesium acetate, 25 C; competitive with TNP-ATP, nucleotide binding pocket

T1 sequence (P05648 whole entry): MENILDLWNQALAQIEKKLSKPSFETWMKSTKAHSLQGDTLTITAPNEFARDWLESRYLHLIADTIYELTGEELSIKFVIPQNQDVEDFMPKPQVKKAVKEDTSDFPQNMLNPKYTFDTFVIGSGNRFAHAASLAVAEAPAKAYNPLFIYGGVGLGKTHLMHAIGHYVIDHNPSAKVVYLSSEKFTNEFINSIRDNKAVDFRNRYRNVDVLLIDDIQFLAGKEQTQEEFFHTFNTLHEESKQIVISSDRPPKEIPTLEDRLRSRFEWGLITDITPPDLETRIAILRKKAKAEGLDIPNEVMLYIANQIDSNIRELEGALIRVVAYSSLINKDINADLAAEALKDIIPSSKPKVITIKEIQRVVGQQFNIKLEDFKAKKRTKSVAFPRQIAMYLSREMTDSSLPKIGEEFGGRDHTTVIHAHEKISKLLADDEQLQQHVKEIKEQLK

With `Nc1ncnc2c1ncn2[C@@H]1O[C@H](COP(=O)(O)OP(=O)(O)OP(=O)(O)O)[C@@H](O)[C@H]1O` [ATP] the “competition with TNP-ATP fluorescence” value was “can be competed away by addition of unlabelled ATP”.
